Key:
[1] = target: T1, PVR (Homo sapiens, UniProt P15151); assay: Biolayer interferometry-based (BLI) binding assay; conditions: for Kd: read-out: KD to PVR protein (BLI)
T1 construct: purchased ACRO Biosystem CD5-H82E3
T1 sequence (P15151 21-417): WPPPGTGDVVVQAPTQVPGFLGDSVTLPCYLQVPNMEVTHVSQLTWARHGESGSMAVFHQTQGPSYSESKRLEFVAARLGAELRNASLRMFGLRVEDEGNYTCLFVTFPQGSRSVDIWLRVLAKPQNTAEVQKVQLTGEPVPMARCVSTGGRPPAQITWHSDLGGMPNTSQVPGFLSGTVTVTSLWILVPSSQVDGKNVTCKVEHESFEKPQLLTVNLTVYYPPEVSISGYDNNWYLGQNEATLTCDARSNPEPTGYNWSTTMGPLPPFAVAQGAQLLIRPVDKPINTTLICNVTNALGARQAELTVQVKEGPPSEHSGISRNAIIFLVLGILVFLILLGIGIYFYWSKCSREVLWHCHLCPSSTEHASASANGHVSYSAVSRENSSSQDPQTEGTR
Method: BLI experiments were performed in PBS supplemented with 0.1% (w/v) BSA, 0.002% (v/v) Tween 20 and 1% DMSO, with an Octet RED96 instrument (FortéBio), operating at 25 °C. The biotinylated PVR carrying a C-terminal AVITAG (CD5-H82E3, ACRO Biosystem) was loaded to saturation onto Super Streptavidin (SSA) biosensors (Pall/FortéBio), and blocked with 200 μL biotin (5 μg/mL) for 60 s. Before the assay, the PVR-labeled SSA sensors were pre-soaked in binding buffer for 30 min. The twenty-two small molecule compounds were preliminary screened for binding to PVR at a single concentration of 100 μM. […] The dissociation was monitored by washing the ligand biosensors from the analyte solution to binding buffer for 60 s. Double reference-subtracted sensorgrams were analyzed using Data Analysis 9.0 (Pall/Forte Bio), and binding responses at the end of the association phase were reported.

[2] = target: T2, human TIGIT/PVR (Homo sapiens, UniProt P15151); assay: Cell based blocking assay, CHOK1-hTIGIT cells and human PVR-Fc; conditions: CHOK1-hTIGIT cells, highest concentration
T2 construct: purchased ACRO Biosystem CD5-H82F6; host or cells: PVR-Fc was purchased; TIGIT was expressed on CHO-K1 cells by lentiviral infection (CHOK1-hTIGIT)
T2 sequence (P15151 28-343 limits assumed): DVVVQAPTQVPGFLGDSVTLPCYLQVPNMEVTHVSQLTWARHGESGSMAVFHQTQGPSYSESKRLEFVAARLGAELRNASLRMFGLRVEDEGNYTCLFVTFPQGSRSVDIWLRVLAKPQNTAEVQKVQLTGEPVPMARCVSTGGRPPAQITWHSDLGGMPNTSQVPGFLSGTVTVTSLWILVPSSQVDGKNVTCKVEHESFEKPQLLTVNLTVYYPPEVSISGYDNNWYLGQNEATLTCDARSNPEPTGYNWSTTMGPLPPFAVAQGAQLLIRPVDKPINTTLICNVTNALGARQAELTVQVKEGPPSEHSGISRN
Method: Cell based blocking assay was performed according to the previous report [30]. […] Then the mixture of PVR protein and compounds were incubated with CHOK1-TIGIT cells for another 30 min, followed by incubation with detection antibody anti-human IgG-PE (eBioscience) for 30 min. Cells were then washed with FACS buffer to remove the unbound fluorescent antibodies, acquired on a FACS Caliber™ (BD Biosciences) and analyzed by FlowJo. […] Cells incubated with corresponding Fc tagged protein and anti-human IgG-PE served as positive control, while cells only incubated with anti-human Fc-PE served as negative control. The mean fluorescent intensity (MFI) was recorded for calculating the blocking efficiency as the formula: Blocking%=MFIof positive control−MFIof tested compounds/MFIof positive control×100%.

[3] = test system: MC38 cells; assay: Cell viability assay (MTT); assay type: cell-based, murine; conditions: 12.5 to 100 μM, 3 days
Method: The cytotoxic effects of indicated compound on MC38 cells were determined by MTT assay. MC38 cells were seeded into 96-well plates at a density of 3000 cells/well and allowed to grow for adhesion. Cells were treated with medium with 1% DMSO as negative control or with a series dilution of indicated compound at a concentration range of 12.5 to 100 μM. Cell viability was ascertained using MTT reagent (Sigma) dissolved in 5 mg/mL PBS and incubated at 37 °C for 4 h in the following 3 days. Formazan crystals formed by viable cells were dissolved in 150 μL DMSO in each well. MTT reduction was quantified by measuring the absorbance at 490 nm.

[4] = test system: MC38 tumor; assay: Anti-tumor experiment and ex vivo assays, MC38 tumor-bearing mice; assay type: in vivo, C57BL/6 mice
Method: All mice experimental procedures were approved by the Ethics Committee of Zhengzhou University. Six-week-old female C57BL/6 mice (Vital River Laboratories, China) were maintained in a specific pathogen-free facility. Food and water were supplied ad libitum. Mice were acclimatized for about 1 week before the experiment. C57BL/6 mice were subcutaneously (s.c.) injected on the right flank with 1 × 10^6 syngeneic MC38 cells in 200 μL PBS. One week later, tumor-bearing mice were randomized into groups of negative control (normal saline with 3% DMSO and 0.5% Tween-80), 0.5, 1.5, 5 and 15 mg/kg of compounds or anti-TIGIT and isotype control groups. Mice were treated with 200 μL control or indicated compound through intraperitoneal (i.p.) injection every other day for 2 weeks, or with 200 μg anti-TIGIT (clone:1G9, Bioxcell) or isotype control mouse IgG (I5381, Sigma) through i.p. injection every 3 days for 2 weeks. Tumor sizes were measured using a digital caliper, and tumor volumes were calculated as the formula: V=1/2×alength×bwidth×cheight
For indicated immune cell depletion models, MC38 mice were injected with 250 μg anti-CD4 (clone: GK1.5), 200 μg anti-CD8 (clone: YTS169.4) or matched rat IgG control (I4131, Sigma), 200 μg anti-NK1.1 (clone: PK136) or matched mouse IgG control (I5381, Sigma) the day before the start of tumor inoculation, as well as weekly thereafter, resulting in a total of 3 injections per mouse. The depletion efficacy was confirmed by flow cytometry analysis with the blood sample of mice treated with indicated antibodies for 6 days. Mouse anti-CD45 FITC (clone: 30-F11, eBioscience), anti CD3 PerCP-eFluor710 (clone: 17A2, eBioscience), anti-CD8α APC (clone: 53–6.7, eBioscience), anti-CD4 APC (clone: GK1.5, eBioscience) and anti-NK1.1 PE (clone: PK136, eBioscience) were used.
Upon completion of treatment, MC38 tumor-bearing mice were sacrificed, and the tumors were dissected and digested by 100 U/mL collagenase IV (Invitrogen) and 100 U/mL Dnase I (Sigma) for 60 min, and then filtered through a 70 μm nylon cell strainer to single cell suspension. The cells were incubated with mouse anti-CD45 FITC (clone: 30-F11, eBioscience), mouse anti-CD3 PerCP-eFluor710 (clone: 17A2, eBioscience), and mouse anti-CD8α APC (clone: 53–6.7, eBioscience) to detect the frequency of infiltrating CD8^+ T cells. For functional assay, the tumor-infiltrating lymphocytes were isolated from tumor cell suspension by discontinuous Percoll density gradients (40 and 70%) (GE Healthcare). The isolated tumor-infiltrating lymphocytes, splenocytes and draining lymph node cells prepared by gentle mechanical disruption were stimulated with or without 20 ng/mL phorbol 12-myristate 13-acetate (PMA, Sigma) and 1 μMionomycin (Sigma) in the presence of protein transport inhibitor for 4 h. The following procedure of intracellular cytokine staining assay was performed as mentioned above, and the antibodies for the staining were mouse anti-CD3 PerCP-eFluor710, mouse anti-CD8α PE, and mouse anti-IFN-γ APC (clone: XMG1.2, eBioscience).

[5] = Potential side effects in mice; assay type: in vivo; conditions: different concentrations administrated for at least one week

O=C1/C(=C2\Nc3ccccc3C2=O)Nc2ccccc21 [SMC 2, Indigo]
KD to PVR protein (BLI) ([1]; series of concentrations): could not fit a determined KD value
BLI response, primary screening ([1]; single concentration of 100 μM): relatively good response

COc1cc(/C=C/C(=O)CC(=O)/C=C/c2ccc(O)c(OC)c2)ccc1O [SMC 6, Curcumin]
Kd ([1]; series of concentrations): 42 µM
blocking efficacy of TIGIT/PVR [2]: 52%

N[C@@H](Cc1cc(I)c(Oc2ccc(O)c(I)c2)c(I)c1)C(=O)O [SMC 14, Liothyronine]
cell viability of MC38 cells (MTT) [3]: did not impact the cell viability
anti-tumor effects, MC38 tumor model ([4]; 0.5 mg/kg i.p. every other day): almost no anti-tumor effects
anti-tumor effects with CD4+, CD8+ T and NK cells depleted ([4]; 5 mg/kg, MC38 model, depletion antibodies): almost disappeared
anti-tumor effects, MC38 tumor model ([4]; 15 mg/kg compared with 5 mg/kg, i.p. every other day): equivalent
MC38 tumor growth ([4]; high dose 5 mg/kg i.p. every other day): significantly inhibit
MC38 tumor growth ([4]; low dose 1.5 mg/kg i.p. every other day): significantly inhibit
side effects on mental state, weight and diet of the mice [5]: no obvious effects

O=C(O[C@@H]1Cc2c(O)cc(O)cc2O[C@@H]1c1ccc(O)c(O)c1)c1cc(O)c(O)c(O)c1 [SMC 22, Epicatechin gallate]
Kd ([1]; series of concentrations): 5.9 µM
blocking efficacy of TIGIT/PVR [2]: extremely low blocking efficacy

Reference: paper PMC7487564 (Cell Communication and Signaling : CCS, 2020)
